SMILES strings stand for the structures. Where a name gives a salt, the structure may show the parent alone.

The subject of one series is mice. Nature of the series: Acute toxicity, oral administration to mice (survival rate 72 hours after administration). It is filed as in vivo, mice (ddY type. To be noted: mice ddY male, hydrochloride, 4320 min. As to the method:
(§1) Drugs were compulsorily orally administered to mice (ddY type, body weight of 20 to 24 g, male) and the survival rate 72 hours after the administration was studied. A suspension of each of the drugs in water having added a small quantity of Tween 80 thereto was orally given at the dose of 0.1 ml/10 g mouse body weight, using a gastric tube.

A short description of series [1]: LD50 in the oral administration in male rats. To be noted: rat, in vivo.
Series [2] concerns Spontaneously hypertensive rat (SHR). Nature of the series: Hypotensive effect: intravenous administration to SHR (no anesthesia). To be noted: 5 animals. Format: in vivo, Okamoto strain, male). As to the method: (1.) Intravenous Administration to SHR (no anesthesia)
Spontaneously hypertensive rat (SHR) (Okamoto strain, aging 20 to 30 weeks, male) were anesthetized with sodium thiopental (50 mg/kg, ip). A cannula for measuring blood pressure was inserted into the descending aorta from the right femoral artery and a cannula for intravenous administration was inserted into the left carotid vein, and these cannulas were fixed on the […], respectively. Change in blood pressure by intravenous administration of each of drugs were measured next day without any anesthesia. As the drugs, a solution of each of the drugs in polyethylene glycol 400 was intravenously administered at the dose of 0.1 ml/100 g body weight of the rat.

The test system is the same in series [3]. Nature of the series: Hypotensive effect: oral administration to SHR (no anesthesia), plethysmographic tail method. Format: in vivo, Okamoto Strain, male). How it is done: (2) Oral Administration to SHR (no anesthesia)
Change in systolic blood pressure when drugs were orally administered to spontaneously hypertensive rat (SHR) (Okamoto Strain, aging 15 to 26 weeks, male) was measured by the plethysmographic tail method (Ueda Seisakusho, USM-105R).
Drugs were compulsorily orally administered at the dose of 0.5 ml/100 g body weight of the rat in the form of a suspension in 0.3% carboxymethyl cellulose, using a gastric tube.

Series [4] in a line: Hypotensive effect (general statement). It is filed as in vivo. As to conditions: among the (±)-α-form.
A short description of series [5]: Acute toxicity, oral administration to mice (survival rate 72 hours after administration). It is filed as in vivo, mice (ddY type. To be noted: mouse, in vivo, mice ddY male. As to the method:
as §1

On to `COC(=O)C1=C(C)NC(C)=C(C(=O)OC2CCCN(Cc3ccccc3)C2)C1c1cccc([N+](=O)[O-])c1` (single isomer, unassigned) [(+)-α-form, (+)-α-2,6-dimethyl-4-(3-nitrophenyl)-1,4-dihydropyridine-3,5-dicarboxylic acid-3-(1-benzyl-3-piperidyl)ester-5-methyl ester hydrochloride], for which, in the series with mice, the “Acute Toxicity LD50” value was found to be 95 mg/kg. In addition, the median lethal dose (LD50) (as a rule, the dose expected to kill half of the subjects tested) in series [1] was 95 mg/kg. Also, the “Maximum Decrease in Mean Blood Pressure” value in series [2] (1 μg/kg i.v.) was 42.2 ± 11.5 mmHg; in series [2] (10 μg/kg i.v., hydrochloride), 67.4 ± 4.7 mmHg. Moreover, in series [3] (1 mg/kg p.o., 8 animals), the “Maximum Decrease in Systolic Blood Pressure” value is reported as 56.3 ± 13.0 mmHg. Further, in series [4], the hypotensive effect result is “excellent hypotensive effect”.

As to `COC(=O)C1=C(C)NC(C)=C(C(=O)OC2CCCN(Cc3ccccc3)C2)C1c1cccc([N+](=O)[O-])c1` (single isomer, unassigned) [(-)-α-form, (-)-α-2,6-dimethyl-4-(3-nitrophenyl)-1,4-dihydropyridine-3,5-dicarboxylic acid-3-(1-benzyl-3-piperidyl)ester-5-methyl ester hydrochloride], in the series with mice, the “Acute Toxicity LD50” value is 918 mg/kg. For the same compound, the “Maximum Decrease in Mean Blood Pressure” value is on record as 23.4 ± 7.9 mmHg in series [2] (10 μg/kg i.v., hydrochloride) and 27.3 ± 6.1 mmHg in series [2] (100 μg/kg i.v.). Also, the “Maximum Decrease in Systolic Blood Pressure” value in series [3] (3 mg/kg p.o., 4 animals) amounted to 22.5 ± 9.6 mmHg; in series [3] (10 mg/kg p.o., 4 animals) it was 30.0 ± 5.3 mmHg.

For `COC(=O)C1=C(C)NC(C)=C(C(=O)OC2CCCN(Cc3ccccc3)C2)C1c1cccc([N+](=O)[O-])c1` (racemic) [(±)-α-form, (±)-2,6-dimethyl-4-(3-nitrophenyl)-1,4-dihydropyridine-3,5-dicarboxylicacid-3-(1-benzyl-3-piperidyl)ester-5-methyl ester], in series [5], the median lethal dose (LD50) at 72 h is 218 mg/kg. The “Maximum Decrease in Mean Blood Pressure” value in series [2] (1 μg/kg i.v.) was found to be 23.1 ± 6.4 mmHg; in series [2] (10 μg/kg i.v.), 45.6 ± 6.5 mmHg. In series [3] (1 mg/kg p.o., 8 animals), the “Maximum Decrease in Systolic Blood Pressure” value is given as 35.6 ± 6.3 mmHg.

The values are drawn from patent US4501748A, “1,4-Dihydropyridine derivatives” (Kyowa Hakko Kogyo Co., Ltd., priority 1983, dated 1985).
